Holding throughout (assay): growth of human tumour cells (NCI), 48 h
Assay [1] relates to SNB-78.
Assay [2] has as its system SK-OV-3.
Assay [3] has as its system MDA-N.
Assay [4] concerns NCI-H23.
The subject of assay [5] is M14.
In assay [6] the test system is A549.
Assay [7] deals with SN12C.
The subject of assay [8] is NCI-H460.
Assay [9] deals with MDA-MB-231.
The test system of assay [10] is U-251.
The subject of assay [11] is HCT-15.
In assay [12] the test system is CAKI-1.
Assay [13] concerns UO-31.
Assay [14] relates to UACC-62.
Assay [15] concerns COLO 205.
For assay [16], the system named is DU-145.
For assay [17], the system named is EKVX.
For assay [18], the system named is MCF7.
For assay [19], the system named is OVCAR-8.
Assay [20] deals with Hs-578T.

Structures are written as SMILES.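 1) Cells in 96-well plates. 2) Compound, 48 h, 5 concentrations. 3) Linear interpolation between surrounding doses. 4) Unreached endpoint = highest concentration. Here, GI50 denotes the concentration required for 50% inhibition of growth.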 Calls of active or inactive are those of the source. Cut-off read from the data, not from the text of the source: active = GI50 up to about 1.1 µM and inactive = higher.

In the case of `COc1ccccc1NC(=O)C1=C(C)NC(C)=C(C(=O)Nc2ccccc2OC)C1c1ccco1`, the GI50 is 9100 nM (inactive) in assay [1]; 7010 nM (inactive) in assay [2]; 2740 nM (inactive) in assay [3]; 6400 nM (inactive) in [4]; 4710 nM (inactive) in assay [5]; 5180 nM (inactive) in assay [6]. Further, the GI50 was 13400 nM (inactive) in [7]; 3560 nM (inactive) in assay [8]; 23600 nM (inactive) in [9]; 5860 nM (inactive) in assay [10]; 4760 nM in assay [11]; 4090 nM (inactive) in assay [12]. Also, the GI50 in [13] was 9270 nM (inactive); in assay [14] it was 3120 nM (inactive); in assay [15] it was 5560 nM (inactive); in [16], 21400 nM (inactive); in [17], 10900 nM (inactive); in assay [18], 3590 nM (inactive). The GI50 was 17800 nM (inactive) in [19] and 3100 nM (inactive) in assay [20].

Regarding `C=C(C)[C@H]1Cc2c(ccc3c2O[C@@H]2COc4cc(OC)c(OC)cc4[C@@H]2C3=O)O1` [ROTENONE], the GI50 is 456 nM (active) in assay [1]; 206 nM (active) in [2]; 42.3 nM (active) in assay [3]; 25.8 nM (active) in assay [4]; 210 nM (active) in assay [5]; 78.5 nM (active) in [6]. In addition, the GI50 in assay [7] is 404 nM (active); in assay [8] it was 89.1 nM (active); in [9], 1020 nM (active); in assay [10], 224 nM (active); in assay [11], 122 nM; in assay [12], 185 nM (active). Also, the GI50 in assay [13] was 131 nM (active); in assay [14], 59.7 nM (active); in [15], 118 nM (active); in assay [16] it was 133 nM (active); in assay [17], 736 nM (active); in assay [18], 281 nM (active). For the same compound, the GI50 was 257 nM (active) in assay [19] and 78.5 nM (active) in assay [20].

The record behind these values is ChEMBL document CHEMBL1201862, “PubChem BioAssay data set” (2004).
